Data set [1] has as its system L3.6 μl PC cells. The data set is described as follows: Luciferase-expressing pancreatic cancer orthotopic nude mouse model. The format is in vivo. The settings on record: 100 mg/kg/day 2/week×4 weeks. On the procedure: The therapeutic efficacy of IIIg on tumor growth and survival is evaluated in different luciferase-expressing pancreatic cancer orthotopic nude mouse models using an IVIS100 Imaging System, allowing a quantitative real time monitoring of tumor growth.
Mice are monitored daily for signs of toxicity including weight loss, diarrhea, inactivity, and general appearance.

Data set [2] concerns malignant cancer cells. The settings on record: malignant versus nonmalignant cells; Kirsten E, Kun E, Int J Mol Med 2000; cited from earlier work.

The values that follow come from US20090149417A1, “Methods and compositions for the treatment of cancer using benzopyrone-type PARP inhibitors” (priority 2007, published 2009).

The structures appear in SMILES notation.

Take `O=c1ccc2c(I)c([N+](=O)[O-])ccc2o1` [IIIg, 5-iodo-6-nitro-benzopyrone]: in data set [1], the Signs of toxicity entry was “without signs of toxicity”, the Survival result was “prolongs survival” and the Tumor burden entry was “significantly reduces the tumor burden”. The Selective cytotoxicity entry in data set [2] is given as “selective cytotoxicity upon malignant cancer cells but not upon nonmalignant cells”.
